Measurements: patent publication US10245255B2, “Compositions and methods for the treatment of obesity and related disorders” (THE REGENTS OF THE UNIVERSITY OF MICHIGAN, priority 2011, dated 2019)
Entries after “also recorded” stand apart in the source; their conditions may differ.

System: RAW264.7 cells
Test: RAW264.7 cells stimulated with LPS or poly I:C: phosphorylation (immunoblot)
Format: cell-based
Conditions: for LPS or poly I:C-stimulated phosphorylation of IRF3: LPS 0.5 μg/ml or poly I:C 50 μg/ml; for phosphorylation of TBK1 on serine 172: LPS or poly I:C stimulated
Experimental: 3T3-L1 fibroblasts (American Type Culture Collection, Manassas, Va.) were cultured and differentiated using standard methods known in the art. […] 3T3-L1 adipocytes were serum starved with 0.5% fetal bovine serum (FBS) in Dulbecco's modified eagle medium (DMEM) prior to treatment. TNFα treatments (50 ng/mL unless otherwise noted) were performed during the 24 hour prior to harvest, after pretreatment with IKKβ inhibitor compound VIII (EMD Biosciences, Philadelphia, Pa.) for 1 hour where indicated. […] Cells were treated with or without 10 nM of insulin for 15 minutes. RAW264.7 cells were serum starved with 0.5% FBS DMEM media and pre-treated with or without Cay-10576 (Cayman Chemical, Ann Arbor, Mich.). The cells were then treated with LPS (0.5 μg/ml) or poly I:C (50 μg/ml) for 1 hour. Cells were harvested for total RNA and analyzed by real-time PCR Cell lysates were resolved on SDS-PAGE and analyzed by immunoblot using the indicated antibodies.

COc1cc2ncn(-c3cc(OCc4ccccc4S(C)(=O)=O)c(C#N)s3)c2cc1OC [Cay-10576]
LPS or poly I:C-stimulated phosphorylation of IRF3: blocked
LPS or poly I:C-stimulated phosphorylation of IRF3 (listed as cayman): reverses
phosphorylation of TBK1 on serine 172: stimulated
phosphorylation of TBK1 on serine 172 (listed as cayman): inducing
IKKβ phosphorylation (listed as cayman): increased; also recorded: inducing
